Measurements from ChEMBL document CHEMBL1201862, “PubChem BioAssay data set” (2004).
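Grown in 96-well plates, cells were treated for 48 hours with each compound at five concentrations. Insufficient inhibition: endpoint recorded as highest concentration tested. GI50 marks 50% less growth.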 Activity calls are given as the source filed them. No stated cut-off is given here; in the data, active = GI50 up to about 1.1 µM and inactive = higher.

Assays:
Experiment in all cases: NCI anticancer screen, dose series, 48 h
[1] = system: ACHN
[2] = system: CAKI-1
[3] = system: COLO 205
[4] = system: HCT-15
[5] = system: HOP-62
[6] = system: HOP-92
[7] = system: IGROV-1
[8] = system: M14
[9] = system: NCI-H226
[10] = system: NCI-H23
[11] = system: NCI/ADR-RES
[12] = system: OVCAR-8
[13] = system: SK-OV-3
[14] = system: SNB-19
[15] = system: TK-10
[16] = system: U-251
[17] = system: UO-31
[18] = system: EKVX
[19] = system: KM12
[20] = system: UACC-62

Compound	GI50 [1]	GI50 [2]	GI50 [3]	GI50 [4]	GI50 [5]	GI50 [6]	GI50 [7]	GI50 [8]	GI50 [9]	GI50 [10]	GI50 [11]	GI50 [12]	GI50 [13]	GI50 [14]	GI50 [15]	GI50 [16]	GI50 [17]	GI50 [18]	GI50 [19]	GI50 [20]
c1ccc(/N=C(\N2CCCCC2)N(CCN2CCCCC2)c2ccccc2)cc1	1.58 µM (inactive)	3.15 µM (inactive)	0.658 µM (active)	1.68 µM	1.43 µM (inactive)	1.44 µM (inactive)	0.396 µM (active)	1.5 µM (inactive)	2.62 µM (inactive)	0.773 µM (active)	1.65 µM (inactive)	2.01 µM (inactive)	1.65 µM (inactive)	3.78 µM (inactive)	2.96 µM (inactive)	1.39 µM (inactive)	1.68 µM (inactive)	–	–	–
O=C1c2ccccc2C2(c3ccc(Cl)cc3)N[C@H]3CCCC[C@@H]3N12 (some centres not stated)	> 100 µM (inactive)	> 100 µM (inactive)	> 100 µM (inactive)	> 100 µM	41.1 µM (inactive)	> 100 µM (inactive)	> 100 µM (inactive)	–	61.1 µM (inactive)	> 100 µM (inactive)	63 µM (inactive)	> 100 µM (inactive)	> 100 µM (inactive)	35.4 µM (inactive)	> 100 µM (inactive)	> 100 µM (inactive)	> 100 µM (inactive)	78.3 µM (inactive)	85.5 µM (inactive)	> 100 µM (inactive)
N/C(=N\O)N/N=C/c1cc2c(cc1Cl)OCO2	–	37.5 µM (inactive)	33.3 µM (inactive)	13.7 µM	36.3 µM (inactive)	28.3 µM (inactive)	43 µM (inactive)	–	29.1 µM (inactive)	58.1 µM (inactive)	18 µM (inactive)	40.6 µM (inactive)	26.4 µM (inactive)	> 25.8 µM (inactive)	–	34.5 µM (inactive)	21.4 µM (inactive)	60.4 µM (inactive)	29.5 µM (inactive)	> 50.4 µM (inactive)
Nc1ccc2cc(S(=O)(=O)O)cc(O)c2c1/N=N/c1ccc(NC(=O)Nc2ccc(/N=N/c3c(N)ccc4cc(S(=O)(=O)O)cc(O)c34)c(S(=O)(=O)O)c2)cc1S(=O)(=O)O	–	–	> 100 µM (inactive)	> 91.2 µM	> 100 µM (inactive)	> 54.8 µM (inactive)	> 100 µM (inactive)	–	> 100 µM (inactive)	> 100 µM (inactive)	> 100 µM (inactive)	> 100 µM (inactive)	> 100 µM (inactive)	–	–	> 100 µM (inactive)	> 100 µM (inactive)	> 100 µM (inactive)	> 100 µM (inactive)	> 100 µM (inactive)
COc1ccc(CC2COc3cc(O)cc(O)c3C2=O)cc1O (configuration not stated)	24.4 µM (inactive)	4.88 µM (inactive)	20.4 µM (inactive)	3.16 µM	5.13 µM (inactive)	22.3 µM (inactive)	4.23 µM (inactive)	3.86 µM (inactive)	–	16.6 µM (inactive)	2.64 µM (inactive)	11.9 µM (inactive)	5.64 µM (inactive)	4.83 µM (inactive)	15.4 µM (inactive)	4.89 µM (inactive)	17 µM (inactive)	> 100 µM (inactive)	2.81 µM (inactive)	8.57 µM (inactive)
Cc1ccc(C2(O)c3ccccc3C(=O)N(C)C2(O)c2ccc(C)cc2)cc1 (configuration not stated)	–	68.1 µM (inactive)	> 100 µM (inactive)	52 µM	22 µM (inactive)	18.6 µM (inactive)	> 100 µM (inactive)	62.7 µM (inactive)	–	> 100 µM (inactive)	39.4 µM (inactive)	25.5 µM (inactive)	> 100 µM (inactive)	21.5 µM (inactive)	> 100 µM (inactive)	17.4 µM (inactive)	57.8 µM (inactive)	32.8 µM (inactive)	29.9 µM (inactive)	> 100 µM (inactive)
Oc1cccc(-c2nc3ccccc3s2)c1	41 µM (inactive)	23.9 µM (inactive)	35.9 µM (inactive)	25.5 µM	22.5 µM (inactive)	25.5 µM (inactive)	5.02 µM (inactive)	23.2 µM (inactive)	10.8 µM (inactive)	15.8 µM (inactive)	21.9 µM (inactive)	27.2 µM (inactive)	27.9 µM (inactive)	67.3 µM (inactive)	–	39.5 µM (inactive)	26.1 µM (inactive)	5.69 µM (inactive)	14.7 µM (inactive)	34.8 µM (inactive)
CC(C)N(C(=O)C1(O)c2ccccc2C=Cc2ccccc21)C(C)C	16.1 µM (inactive)	24.7 µM (inactive)	19.3 µM (inactive)	21.1 µM	19.2 µM (inactive)	–	14.8 µM (inactive)	19 µM (inactive)	19.3 µM (inactive)	17.6 µM (inactive)	18.2 µM (inactive)	16.9 µM (inactive)	25.3 µM (inactive)	19.9 µM (inactive)	18 µM (inactive)	16.8 µM (inactive)	21.1 µM (inactive)	16.6 µM (inactive)	22.9 µM (inactive)	15.4 µM (inactive)
CN(C)CC1CCC/C(=C\c2ccccc2)C1=O (configuration not stated)	3.5 µM (inactive)	1.77 µM (inactive)	2.24 µM (inactive)	2.14 µM	19.9 µM (inactive)	2.44 µM (inactive)	3.74 µM (inactive)	–	2.82 µM (inactive)	10.2 µM (inactive)	10.8 µM (inactive)	3.94 µM (inactive)	19.8 µM (inactive)	16.2 µM (inactive)	2.36 µM (inactive)	15.4 µM (inactive)	2.32 µM (inactive)	17.9 µM (inactive)	1.19 µM (inactive)	7.01 µM (inactive)
N#CCCN(CCN(CCC#N)C(=O)Nc1ccccc1)C(=O)Nc1ccccc1	> 100 µM (inactive)	–	> 100 µM (inactive)	> 100 µM	20.8 µM (inactive)	37.6 µM (inactive)	68.9 µM (inactive)	> 100 µM (inactive)	> 100 µM (inactive)	61.4 µM (inactive)	72.6 µM (inactive)	57.5 µM (inactive)	28.6 µM (inactive)	32.7 µM (inactive)	> 100 µM (inactive)	39.6 µM (inactive)	85.7 µM (inactive)	90.8 µM (inactive)	–	> 100 µM (inactive)
CC1(CO)COS(=O)OC1 (configuration not stated)	> 100 µM (inactive)	–	> 100 µM (inactive)	> 100 µM	–	> 100 µM (inactive)	–	–	> 100 µM (inactive)	> 100 µM (inactive)	> 100 µM (inactive)	> 100 µM (inactive)	> 100 µM (inactive)	> 100 µM (inactive)	> 100 µM (inactive)	> 100 µM (inactive)	> 100 µM (inactive)	–	> 100 µM (inactive)	–
CC1=C2c3ccccc3N(C(=O)/C=C/C(=O)O)[C@H]2[C@H]2C(=O)OC(=O)[C@H]2C1	> 10 µM (inactive)	> 10 µM (inactive)	> 10 µM (inactive)	> 10 µM	> 10 µM (inactive)	–	> 10 µM (inactive)	> 10 µM (inactive)	> 10 µM (inactive)	> 10 µM (inactive)	> 10 µM (inactive)	> 10 µM (inactive)	> 10 µM (inactive)	> 10 µM (inactive)	> 10 µM (inactive)	> 10 µM (inactive)	> 10 µM (inactive)	> 10 µM (inactive)	> 10 µM (inactive)	> 10 µM (inactive)
Cc1c2c(cc3c1[nH]c1ccccc13)C(c1ccc(Cl)cc1)=NCC2	–	–	0.41 µM (active)	0.416 µM	0.738 µM (active)	0.716 µM (active)	0.944 µM (active)	–	1.3 µM (inactive)	0.368 µM (active)	0.264 µM (active)	0.804 µM (active)	2.67 µM (inactive)	0.355 µM (active)	–	0.608 µM (active)	0.644 µM (active)	0.274 µM (active)	0.274 µM (active)	0.452 µM (active)
CN(C)N1C(=O)C(=O)N(c2cccc3ccccc23)C1=O	> 10 µM (inactive)	> 10 µM (inactive)	> 10 µM (inactive)	> 10 µM	> 10 µM (inactive)	–	> 10 µM (inactive)	> 10 µM (inactive)	> 10 µM (inactive)	> 10 µM (inactive)	> 10 µM (inactive)	> 10 µM (inactive)	> 10 µM (inactive)	> 10 µM (inactive)	> 10 µM (inactive)	> 10 µM (inactive)	> 10 µM (inactive)	> 10 µM (inactive)	> 10 µM (inactive)	> 10 µM (inactive)
O=[N+]([O-])c1ccc(C2=NOC(c3ccccc3F)N2C23CC4CC(CC(C4)C2)C3)cc1 (configuration not stated)	> 100 µM (inactive)	> 100 µM (inactive)	> 100 µM (inactive)	> 100 µM	> 100 µM (inactive)	7.43 µM (inactive)	> 100 µM (inactive)	> 100 µM (inactive)	> 100 µM (inactive)	> 100 µM (inactive)	> 100 µM (inactive)	> 100 µM (inactive)	> 100 µM (inactive)	–	> 100 µM (inactive)	> 100 µM (inactive)	> 100 µM (inactive)	> 100 µM (inactive)	> 100 µM (inactive)	> 100 µM (inactive)
